Here are results for one molecule from publication PMC5472428 (Drug Design, Development and Therapy, 2017).

Data set [1] can be described thus: Pharmacokinetic studies in rabbits. Format: in vivo. As to conditions: Albino, rabbit, plasma, po, 1 mg/kg.
The conditions of data set [2]: poor aqueous solubility and good permeability; cited from earlier work.

SMILES strings stand for the structures.

By AUC is commonly meant concentration integrated over time. Higher therefore signals high exposure. As usually defined, the Cmax is the maximum level reached in the sampled fluid or tissue. As a reminder, the Tmax is the time from dosing to the highest level. One may read the half-life as the time needed for the level to fall by half in the phase considered. Regarding `CC(C)(C)NC(=O)[C@H]1CC[C@H]2[C@@H]3CC[C@H]4NC(=O)C=C[C@]4(C)[C@H]3CC[C@]12C` [FIN, (5alpha,17beta)-(1,1-dimethylethyl)-3-oxo-4-azaandrost-1-ene-17-carboxamide], in data set [1], the area under the curve (AUC) stood at 0.782 ± 0.0937 µg·h/mL, the maximum concentration (Cmax) was 0.0393 ± 0.00992 µg/mL, the Tmax was found to be 3.5 ± 0.37 h and the half-life is 11 ± 2.17 h. In data set [1], this molecule gave a k el of 1.72e-05 s⁻¹. The “Biopharmaceutics Classification System (BCS) class” value in data set [2] is “Class II”.
